These results are taken from US20190353647A1, “NOVEL REAL-TIME MULTIPLEXED, MULTI-COLOR BIOLUMINESCENCE RESONANCE ENERGY TRANSFER ASSAY, APPARATUS, AND USES THEREOF” (Universite de Bordeaux, priority 2016, published 2019).

Structures are written as SMILES.

For one assay, the target named is T1, TRPV3 (Homo sapiens, UniProt Q8NET8).
T1 sequence (Q8NET8 1-790): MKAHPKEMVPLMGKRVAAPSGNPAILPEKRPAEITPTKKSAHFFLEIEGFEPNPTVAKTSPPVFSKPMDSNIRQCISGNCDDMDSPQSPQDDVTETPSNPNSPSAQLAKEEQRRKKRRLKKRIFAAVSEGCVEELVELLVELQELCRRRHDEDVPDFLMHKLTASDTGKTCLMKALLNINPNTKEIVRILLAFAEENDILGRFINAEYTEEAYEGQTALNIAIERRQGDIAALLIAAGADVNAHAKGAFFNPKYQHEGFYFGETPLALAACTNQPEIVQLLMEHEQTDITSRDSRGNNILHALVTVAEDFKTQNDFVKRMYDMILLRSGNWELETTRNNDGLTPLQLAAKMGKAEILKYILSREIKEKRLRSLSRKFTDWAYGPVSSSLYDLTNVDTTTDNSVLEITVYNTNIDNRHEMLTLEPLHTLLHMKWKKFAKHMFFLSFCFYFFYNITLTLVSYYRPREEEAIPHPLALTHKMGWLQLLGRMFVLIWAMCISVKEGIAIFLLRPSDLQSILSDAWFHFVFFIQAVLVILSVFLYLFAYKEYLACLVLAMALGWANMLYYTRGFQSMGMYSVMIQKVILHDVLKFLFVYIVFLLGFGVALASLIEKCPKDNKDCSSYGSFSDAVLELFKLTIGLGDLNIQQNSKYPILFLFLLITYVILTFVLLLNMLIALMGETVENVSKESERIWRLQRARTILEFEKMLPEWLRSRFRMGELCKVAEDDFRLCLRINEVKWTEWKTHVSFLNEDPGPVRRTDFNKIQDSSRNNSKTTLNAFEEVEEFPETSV
Put plainly: Intermolecular BRET assay, Luc-TRPV3/YFP-CaM in HEK293T cells. The format is cell-based. More on the design: expressed in transfected cells; host or cells: HEK293T. The conditions noted are these: dose-response; for BRET signal between YFP-CaM and Luc-TRPV3 on challenge: FIG. 1. The text has this:
(§1) In order to generate the BRET constructs, super Yellow Fluorescent Protein 2 and Renilla Luciferase II were used to improve the brightness of the assay. They were referred as YFP and Luc for short in the rest of the manuscript. The cDNA of Luc and YFP were first cloned together using a three-piece ligation in the BamHI/XhoI site of pcDNA3.1(+) (Invitrogen, Carlsbad, Calif., USA), yielding two expression vectors pcDNA3.1 YFP-Luc where YFP was cloned in-fusion at the N-terminal of Luc, and pcDNA3.1 Luc-YFP where Luc was cloned in-fusion at the N-terminal of YFP. Both YFP and Luc were amplified by PCR from the pcDNA3-YFP-EPAC-Luc vector. Luc was cloned either at the N-terminal of YFP as a HindIII-EcoRI fragment (primers used: “Luc_HindIII_ATGN-term sense” and “Luc_no Stop_EcoRI_N-term antisense”) or at the COOH-terminal of YFP as an EcoRI-XhoI fragment (primer used: “Luc_EcoRI_ATG_C-term sense” and “Luc_XhoI_Stop_C-term antisense”). In parallel, YFP was cloned either at the N-terminal of Luc as a HindIII-EcoRI fragment (primers used: “YFP_HindIII_ATG_N-term sense” and “YFP_no Stop_EcoRI_N-term antisense”) or at the COOH-terminal of Luc as a EcoRI-XhoI fragment (primer used: “YFP_EcoRI_ATG_C-term sense” and “YFP_XhoI_Stop_C-term antisense”). The sequence joining Luc and YFP sequence encoded […] (SEQ ID NO: 18) as a linker, and contained an AgeI restriction site. The YFP-hTRPV1-Luc expression vector was obtained by subcloning the human TRPV1 cDNA from the pDONR201-hTRPV1 vector (Harvard Medical School PlasmID Repository, clone HsCD00081472) as an EcoRI PCR fragment in the EcoRI site of the vector pcDNA3.1 YFP-Luc (primer used: “hTRPV1_EcoRI_Fus_Sense” and “hTRPV1_EcoRI_Fus_antisense”). The hTRPV1-Luc expression vector was obtained by subcloning the cDNA of hTRPV1 as a HindIII-EcoRI fragment in place of the YFP in the HindIII-EcoRI site of the pcDNA3.1 YFP-Luc vector (primer used: “hTRPV1_HindIII_ATG_Sense” and “hTRPV1_EcoRI_Fus_antisense”). […]
(§2) HEK293T cells were maintained in Dulbecco's modified Eagle's medium-high Glucose (DMEM) (D6429, Sigma) supplemented with 10% fetal bovine serum, 100 units mL-1 penicillin and streptomycin. […] After overnight incubation, transfected cells were then detached, resuspended in DMEM w/o red phenol (Ref 21063-029, ThermoFisher scientific, Waltham, Mass., USA) and replated at a density of 10^5 cells per well in 96-well white plates with clear bottoms (Greiner Bio one, Courtaboeuf, France) pre-treated with D-polylysine (Sigma) for reading with the Tristar2 luminometer (Berthold Technologies, Bad Wildbad, Germany) or onto 12 mm diameter glass coverslips (Knittel Glass, Braunschweig, Germany) treated with poly-L-lysine for the reading with the SpectraPro 2300i spectrometer (Acton Optics, Acton, Mass., USA). […]
(In general: BRET reads energy transfer from a luciferase to a nearby fluorophore.)

Another assay has as its target TRPV4 (Homo sapiens, UniProt Q9HBA0). Put plainly: Intermolecular BRET assay, TRPV4-Luc/YFP-CaM in HEK293T cells. In kind it is cell-based. More on the design: expressed in transfected cells; host or cells: HEK293T. The following applies: for TRPV4-Luc/YFP-CaM basal BRET signal on challenge: HEK293T, dose-response, FIG. 1.
Description: as §1, §2

Chain of TRPV4 (Q9HBA0 whole entry): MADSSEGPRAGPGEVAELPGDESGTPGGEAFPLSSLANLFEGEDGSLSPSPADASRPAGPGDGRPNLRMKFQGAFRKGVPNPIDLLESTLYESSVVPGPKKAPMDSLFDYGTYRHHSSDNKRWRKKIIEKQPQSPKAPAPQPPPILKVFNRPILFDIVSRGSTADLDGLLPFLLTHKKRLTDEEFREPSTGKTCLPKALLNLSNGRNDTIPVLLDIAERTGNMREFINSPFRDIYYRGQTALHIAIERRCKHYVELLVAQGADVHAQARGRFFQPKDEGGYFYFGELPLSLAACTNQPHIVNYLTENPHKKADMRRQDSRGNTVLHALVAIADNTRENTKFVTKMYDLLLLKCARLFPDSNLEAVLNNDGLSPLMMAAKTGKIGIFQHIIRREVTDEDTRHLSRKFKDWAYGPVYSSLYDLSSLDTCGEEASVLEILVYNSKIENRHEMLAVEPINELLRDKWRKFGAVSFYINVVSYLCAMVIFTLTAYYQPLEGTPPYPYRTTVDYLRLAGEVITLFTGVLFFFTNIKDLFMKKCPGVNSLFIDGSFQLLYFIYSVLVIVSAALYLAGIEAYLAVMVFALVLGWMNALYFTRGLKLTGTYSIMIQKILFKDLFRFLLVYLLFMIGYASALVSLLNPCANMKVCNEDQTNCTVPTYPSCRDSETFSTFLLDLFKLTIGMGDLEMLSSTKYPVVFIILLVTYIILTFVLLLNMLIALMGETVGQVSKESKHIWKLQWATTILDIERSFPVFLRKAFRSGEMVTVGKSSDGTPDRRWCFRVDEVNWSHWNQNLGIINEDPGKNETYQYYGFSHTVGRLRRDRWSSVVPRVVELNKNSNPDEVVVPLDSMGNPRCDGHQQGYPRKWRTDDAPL

`CC(C)C[C@H](NC(=O)c1cc2ccccc2s1)C(=O)N1CCN(C(=O)[C@H](CO)NS(=O)(=O)c2ccc(Cl)cc2Cl)CC1` [GSK1016790A]: the “BRET signal between YFP-CaM and Luc-TRPV3 on challenge” value at TRPV3 is on record as “no dose-dependent BRET increase”. In addition, on TRPV4, the half-maximal effective concentration (EC50) (commonly the concentration giving half of the maximal effect) came to 0.00193 µM and the “TRPV4-Luc/YFP-CaM basal BRET signal on challenge” value was “dose-dependent increase”.
On to `CCN(CC)CCOC(=O)C(c1ccccc1)C1CCCCC1` (centres unmarked) [Drofenine], for which the “BRET signal between YFP-CaM and Luc-TRPV3 on challenge” value on TRPV3 is “dose-dependent increase”. Further, on TRPV3 (FIG. 1, read-out: EC50 of BRET signal increase between YFP-CaM and Luc-TRPV3), the EC50 came to 206 µM. For the same compound, the “TRPV4-Luc/YFP-CaM basal BRET signal on challenge” value at TRPV4 was “did not produce any increase”.
For `COc1cc(CNC(=O)CCCC/C=C/C(C)C)ccc1O` [CAPS, Capsaicin], the “BRET signal between YFP-CaM and Luc-TRPV3 on challenge” value at TRPV3 is “no dose-dependent BRET increase”. Further, the “TRPV4-Luc/YFP-CaM basal BRET signal on challenge” value on TRPV4 is given as “did not produce any increase”.
